From patent US20260125378A2, “Heterocyclic Compounds” (BeOne Medicines I GmbH, priority 2023, published 2026)

Tests used:
[1] = target: T1, Full length DGKζ (in-house protein M1-V929) (Homo sapiens, UniProt Q13574); assay: Biochemical DGK IC50 assay (ADP-Glo, lipid micelle substrate), DGKζ; settings: 1 hour preincubation, 1 hour reaction, room temperature
T1 construct: His (N); TEV site (N); made in house; host or cells: Sf9 insect cells (Bac-to-Bac baculovirus)
In short: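 Full-length human DGKζ (M1-V929, His-TEV tagged, Sf9 baculovirus-expressed) with DAG/PS lipid micelle substrate in octyl glucoside, at room temperature in 50 mM HEPES, 10 mM MgCl2, 0.01 mM CaCl2 buffer.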

[2] = target: T2, Full length DGKα (D21-10BG, SignalChem) (Homo sapiens, UniProt P23743); assay: Biochemical DGK IC50 assay (ADP-Glo, lipid micelle substrate), DGKα; settings: 1 hour preincubation, 1 hour reaction, room temperature
T2 construct: Full length DGKα (D21-10BG, SignalChem); purchased SignalChem D21-10BG
T2 sequence (P23743 whole entry): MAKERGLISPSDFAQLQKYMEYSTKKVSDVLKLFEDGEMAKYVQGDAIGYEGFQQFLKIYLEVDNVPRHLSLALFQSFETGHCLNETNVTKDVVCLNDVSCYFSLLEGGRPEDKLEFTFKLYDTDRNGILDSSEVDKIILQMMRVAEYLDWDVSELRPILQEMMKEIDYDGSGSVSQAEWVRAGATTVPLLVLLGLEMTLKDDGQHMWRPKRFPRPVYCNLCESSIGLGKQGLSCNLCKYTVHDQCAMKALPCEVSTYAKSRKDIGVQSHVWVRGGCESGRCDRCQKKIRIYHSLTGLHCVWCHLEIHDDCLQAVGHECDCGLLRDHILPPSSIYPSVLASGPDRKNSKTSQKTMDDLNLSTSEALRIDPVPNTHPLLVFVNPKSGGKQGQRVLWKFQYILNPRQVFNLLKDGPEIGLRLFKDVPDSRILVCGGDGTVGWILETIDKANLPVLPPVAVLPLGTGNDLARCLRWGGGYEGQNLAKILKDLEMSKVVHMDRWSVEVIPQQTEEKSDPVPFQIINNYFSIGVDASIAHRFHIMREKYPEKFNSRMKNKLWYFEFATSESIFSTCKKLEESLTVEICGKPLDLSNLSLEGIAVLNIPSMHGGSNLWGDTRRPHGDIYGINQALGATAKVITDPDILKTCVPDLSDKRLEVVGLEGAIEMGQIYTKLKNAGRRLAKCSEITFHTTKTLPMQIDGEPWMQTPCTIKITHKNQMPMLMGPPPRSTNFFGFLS
In short: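 Full-length human DGKα with DAG/PS lipid micelle substrate (in octyl glucoside buffer), reacted 1 h at room temperature in 50 mM HEPES, 10 mM MgCl2, 0.01 mM CaCl2, 0.1 mM Na3VO4, 0.01% BSA, 0.005% Tween-20. ADP formed read by ADP-Glo luminescence; IC50 from inhibition across increasing compound concentrations.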

T1 sequence (Q13574 1-929 isoform Q13574-4): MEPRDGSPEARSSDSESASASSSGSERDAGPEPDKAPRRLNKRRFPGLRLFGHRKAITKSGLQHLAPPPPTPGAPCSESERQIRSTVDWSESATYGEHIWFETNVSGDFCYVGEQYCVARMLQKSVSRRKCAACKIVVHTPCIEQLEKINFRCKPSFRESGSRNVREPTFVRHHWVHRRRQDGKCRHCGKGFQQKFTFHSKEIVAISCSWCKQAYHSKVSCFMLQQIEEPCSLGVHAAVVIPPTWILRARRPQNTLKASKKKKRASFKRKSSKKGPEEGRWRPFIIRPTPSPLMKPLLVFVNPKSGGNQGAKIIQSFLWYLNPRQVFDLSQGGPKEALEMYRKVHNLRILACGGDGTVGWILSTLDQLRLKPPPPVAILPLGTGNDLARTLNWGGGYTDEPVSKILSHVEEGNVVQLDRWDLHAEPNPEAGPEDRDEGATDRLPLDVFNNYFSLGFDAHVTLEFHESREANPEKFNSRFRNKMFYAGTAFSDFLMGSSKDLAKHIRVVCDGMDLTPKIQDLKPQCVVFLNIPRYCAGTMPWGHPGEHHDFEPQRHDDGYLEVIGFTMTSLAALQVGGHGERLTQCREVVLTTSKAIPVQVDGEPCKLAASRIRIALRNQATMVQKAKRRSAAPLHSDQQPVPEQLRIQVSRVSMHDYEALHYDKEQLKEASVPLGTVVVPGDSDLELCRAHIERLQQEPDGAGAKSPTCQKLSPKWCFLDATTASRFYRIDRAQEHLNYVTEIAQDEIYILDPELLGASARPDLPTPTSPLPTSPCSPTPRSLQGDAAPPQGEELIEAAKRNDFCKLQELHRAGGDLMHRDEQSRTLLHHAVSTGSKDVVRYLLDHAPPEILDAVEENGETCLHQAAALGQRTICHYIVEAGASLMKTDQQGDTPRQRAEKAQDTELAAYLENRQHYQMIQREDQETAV

SMILES	IC50 [1]	IC50 [2]
CCn1c(CC#N)nc2c(N3C[C@@H](C)N(C(C)c4ccnc(OC(C)C)c4)C[C@@H]3C)nc(=O)n(C)c21 (stereo partly drawn) [Compound A124, 2-(9-ethyl-6-((2S,5R)-4-(1-(2-isopropoxypyridin-4-yl)ethyl)-2,5-dimethylpiperazin-1-yl)-3-methyl-2-oxo-3,9-dihydro-2H-purin-8-yl)acetonitrile]	48 nM	111000 nM
CC(c1ccc(C(F)(F)F)cn1)N1C[C@H](C)N(c2nc(=O)n(C)c3c2nc(CC#N)n3C)C[C@H]1C (single isomer, unassigned) [Compound A148a]	1100 nM	3630 nM
CC(c1ccc2c(c1F)OC(C)(C)CO2)N1C[C@H](C)N(c2nc(=O)n(C)c3c2nc(CC#N)n3C)C[C@H]1C (stereo partly drawn) [Compound A70, 2-(6-((2S,5R)-4-(1-(5-fluoro-3,3-dimethyl-2,3-dihydrobenzo[b][1,4]dioxin-6-yl)ethyl)-2,5-dimethylpiperazin-1-yl)-3,9-dimethyl-2-oxo-3,9-dihydro-2H-purin-8-yl)acetonitrile]	8 nM	9690 nM
CCn1c(CC#N)nc2c(N3C[C@@H](C)N(C(C)c4ccc5sc(C(C)C)nc5c4)C[C@@H]3C)nc(=O)n(C)c21 (stereo partly drawn) [Compound A96, 2-(9-ethyl-6-((2S,5R)-4-(1-(2-isopropylbenzo[d]thiazol-5-yl)ethyl)-2,5-dimethylpiperazin-1-yl)-3-methyl-2-oxo-3,9-dihydro-2H-purin-8-yl)acetonitrile]	63 nM	49600 nM
CCn1c(CC#N)nc2c(N3C[C@@H](C)N(C(C)c4ccc5c(c4F)OC(C)(C)CO5)C[C@@H]3C)nc(=O)n(C)c21 (stereo partly drawn) [Compound A71, 2-(9-ethyl-6-((2S,5R)-4-(1-(5-fluoro-3,3-dimethyl-2,3-dihydrobenzo[b][1,4]dioxin-6-yl)ethyl)-2,5-dimethylpiperazin-1-yl)-3-methyl-2-oxo-3,9-dihydro-2H-purin-8-yl)acetonitrile]	48 nM	124000 nM
CC(c1cccnc1C(F)(F)F)N1C[C@H](C)N(c2cc(=O)n(C)c3c2nc(CC#N)n3C)C[C@H]1C (single isomer, unassigned) [Compound A7a]	3110 nM	> 10000 nM
CC(c1cc2c(cc1F)OCC(C)(C)O2)N1C[C@H](C)N(c2nc(=O)n(C)c3c2nc(CC#N)n3C)C[C@H]1C (single isomer, unassigned) [Compound A69b]	147 nM	6090 nM
CC(c1ccc2c(c1)OCCO2)N1C[C@H](C)N(c2nc(=O)n(C)c3c2nc(CC#N)n3C)C[C@H]1C (single isomer, unassigned) [Compound A58a]	20 nM	13300 nM
CCn1c(CC#N)nc2c(N3C[C@@H](C)N(C(C)c4cc5c(cc4F)OC(C)(C)O5)C[C@@H]3C)nc(=O)n(C)c21 (single isomer, unassigned) [Compound A174a]	1030 nM	51200 nM
CCn1c(CC#N)nc2c(N3C[C@@H](C)N(C(C)c4cccc(C(C)(C)O)c4)C[C@@H]3C)nc(=O)n(C)c21 (stereo partly drawn) [Compound A111, 2-(9-ethyl-6-((2S,5R)-4-(1-(3-(2-hydroxypropan-2-yl)phenyl)ethyl)-2,5-dimethylpiperazin-1-yl)-3-methyl-2-oxo-3,9-dihydro-2H-purin-8-yl)acetonitrile]	771 nM	> 150000 nM
Cc1ccc(C(C)N2C[C@H](C)N(c3c(F)c(=O)n(C)c4c3nc(CC#N)n4C)C[C@H]2C)c(C(F)(F)F)c1 (single isomer, unassigned) [Compound A15b]	291 nM	> 10000 nM
COC[C@H]1CN(C(C)c2ccc3c(c2)OCCO3)[C@H](C)CN1c1nc(=O)n(C)c2c1nc(CC#N)n2C (single isomer, unassigned) [Compound A11a]	764 nM	57800 nM
CCn1c(CC#N)nc2c(N3C[C@@H](C)N(C(C)c4ccnc(C(C)(C)C)c4)C[C@@H]3C)nc(=O)n(C)c21 (stereo partly drawn) [Compound A129, 2-(6-((2S,5R)-4-(1-(2-(tert-butyl)pyridin-4-yl)ethyl)-2,5-dimethylpiperazin-1-yl)-9-ethyl-3-methyl-2-oxo-3,9-dihydro-2H-purin-8-yl)acetonitrile]	4 nM	> 150000 nM
CCn1c(CC#N)nc2c(N3C[C@@H](C)N(C(C)c4cccc(C)c4)C[C@@H]3C)nc(=O)n(C)c21 (stereo partly drawn) [Compound A45, 2-(6-((2S,5R)-2,5-dimethyl-4-(1-(m-tolyl)ethyl)piperazin-1-yl)-9-ethyl-3-methyl-2-oxo-3,9-dihydro-2H-purin-8-yl)acetonitrile]	410 nM	79300 nM
CCn1c(CC#N)nc2c(N3C[C@@H](C)N(C(C)c4ccc5c(c4)OC(F)(F)CO5)C[C@@H]3C)nc(=O)n(C)c21 (single isomer, unassigned) [Compound A80a]	7 nM	65600 nM
Cc1cccc(C(C)N2C[C@H](C)N(c3c(F)c(=O)n(C)c4c3nc(CC#N)n4C)C[C@H]2C)c1C(F)(F)F (single isomer, unassigned) [Compound A17b]	409 nM	1580 nM
CCn1c(CC#N)nc2c(N3C[C@@H](C)N(C(C)c4ccc5nc(C)sc5c4)C[C@@H]3C)nc(=O)n(C)c21 (single isomer, unassigned) [Compound A56a]	810 nM	108000 nM
CCn1c(=O)nc(N2C[C@@H](C)N(C(C)c3ccc4c(c3)OC(C)(C)CO4)C[C@@H]2C)c2nc(CC#N)n(C)c21 (single isomer, unassigned) [Compound A61a]	2 nM	10100 nM
CCn1c(=O)nc(N2C[C@@H](C)N(C(C)c3ccc4c(c3)OC(C)(C)CO4)C[C@@H]2C)c2nc(CC#N)n(C)c21 (single isomer, unassigned) [Compound A61b]	420 nM	37900 nM
CCn1c(CC#N)nc2c(N3C[C@@H](C)N(C(C)c4cccc(C(F)(F)F)c4)C[C@@H]3C)nc(=O)n(C)c21 (mixture of isomers) [Compound A42, 2-(6-((2S,5R)-2,5-dimethyl-4-(1-(3-(trifluoromethyl)phenyl)ethyl)piperazin-1-yl)-9-ethyl-3-methyl-2-oxo-3,9-dihydro-2H-purin-8-yl)acetonitrile]	42 nM	61900 nM
CCn1c(CC#N)nc2c(N3C[C@@H](C)N(C(C)c4ccc5c(c4)OC(C)(C)O5)C[C@@H]3C)nc(=O)n(C)c21 (single isomer, unassigned) [Compound A85a]	1250 nM	148000 nM
CC(c1ccc2c(c1)OC(C)(C)O2)N1C[C@H](C)N(c2nc(=O)n(C)c3c2nc(CC#N)n3CC(F)F)C[C@H]1C (stereo partly drawn) [Compound A166, 2-(9-(2,2-difluoroethyl)-6-((2S,5R)-4-(1-(2,2-dimethylbenzo[d][1,3]dioxol-5-yl)ethyl)-2,5-dimethylpiperazin-1-yl)-3-methyl-2-oxo-3,9-dihydro-2H-purin-8-yl)acetonitrile]	14 nM	26100 nM
CCn1c(CC#N)nc2c(N3C[C@@H](C)N(C(C)c4ccc5c(c4)C(=O)N(C)C5=O)C[C@@H]3C)nc(=O)n(C)c21 (stereo partly drawn) [Compound A83, 2-(6-((2S,5R)-2,5-dimethyl-4-(1-(2-methyl-1,3-dioxoisoindolin-5-yl)ethyl)piperazin-1-yl)-9-ethyl-3-methyl-2-oxo-3,9-dihydro-2H-purin-8-yl)acetonitrile]	40 nM	> 150000 nM
CC(c1ccc(F)cc1C(F)(F)F)N1C[C@H](C)N(c2cc(=O)n(C)c3[nH]c(CC#N)nc23)C[C@H]1C (stereo partly drawn) [Compound A9, 2-(7-((2S,5R)-4-(1-(4-fluoro-2-(trifluoromethyl)phenyl)ethyl)-2,5-dimethylpiperazin-1-yl)-4-methyl-5-oxo-4,5-dihydro-3H-imidazo[4,5-b]pyridin-2-yl)acetonitrile]	262 nM	> 10000 nM
CCn1c(CC#N)nc2c(N3C[C@@H](C)N(C(C)c4cc5c(cc4F)OCC(C)(C)O5)C[C@@H]3C)nc(=O)n(C)c21 (single isomer, unassigned) [Compound A157b]	346 nM	55700 nM
CCn1c(CC#N)nc2c(N3C[C@@H](C)N(C(C)c4cc(F)c5c(n4)OC(C)(C)CO5)C[C@@H]3C)nc(=O)n(C)c21 (single isomer, unassigned) [Compound A163b]	2070 nM	> 150000 nM
CC(c1cc2c(cc1F)OCC(C)(C)O2)N1C[C@H](C)N(c2nc(=O)n(C)c3c2nc(CC#N)n3C)C[C@H]1C (stereo partly drawn) [Compound A69, 2-(6-((2S,5R)-4-(1-(7-fluoro-3,3-dimethyl-2,3-dihydrobenzo[b][1,4]dioxin-6-yl)ethyl)-2,5-dimethylpiperazin-1-yl)-3,9-dimethyl-2-oxo-3,4,5,9-tetrahydro-2H-purin-8-yl)acetonitrile]	6 nM	3070 nM
CCn1c(CC#N)nc2c(N3C[C@@H](C)N(C(C)c4ccn(C)c(=O)c4)C[C@@H]3C)nc(=O)n(C)c21 (stereo partly drawn) [Compound A107, 2-(6-((2S,5R)-2,5-dimethyl-4-(1-(1-methyl-2-oxo-1,2-dihydropyridin-4-yl)ethyl)piperazin-1-yl)-9-ethyl-3-methyl-2-oxo-3,9-dihydro-2H-purin-8-yl)acetonitrile]	> 10000 nM	> 150000 nM
COC[C@H]1CN(C(C)c2ccc3ncc(C)nc3c2)[C@H](C)CN1c1nc(=O)n(C)c2c1nc(CC#N)n2C (single isomer, unassigned) [Compound A13a]	5060 nM	> 150000 nM
